Assay results published in patent US10227344B2, “CK2 inhibitors, compositions and methods thereof” (Polaris Pharmaceuticals, Inc., priority 2016, dated 2019).

Legend:
Format in all cases: cell-based
SKOV-3 = assay: Cancer cell panel, cell viability (resazurin): Ovarian, SKOV-3; conditions: SKOV-3 (Ovarian), 72 hours; labelled drug combined with Example 3
Procedure: (§1) Cells were plated in 96-well plates and treated for 72 hours with a serially diluted CK2 inhibitor or anti-cancer drug or their combination. The suspension cell lines were treated right after plating, while the adherent cells were allowed to attach overnight prior to the start of the treatment.
(§2) Cell viability was determined by adding resazurin to cell cultures and measuring fluorescence with a plate reader. Relative cell viability was calculated by dividing the cell viability signal from a test sample by that of a non-treated control. […] Bliss Independence and Highest Single Agent models were used to determine if there is synergy, additivity or antagonism between the CK2 inhibitor and an anti-cancer drug.

OVCAR-3 = assay: Cancer cell panel, cell viability (resazurin): Ovarian, OVCAR-3; conditions: OVCAR-3 (Ovarian), 72 hours; labelled drug combined with Example 3
Procedure: as §1, §2

A2780 = assay: Cancer cell panel, cell viability (resazurin): Ovarian, A2780; conditions: 72 hours, labelled drug combined with Example 3
Procedure: as §1, §2

Caov-3 = assay: Cancer cell panel, cell viability (resazurin): Ovarian, Caov-3; conditions: Caov-3 (Ovarian), 72 hours; labelled drug combined with Example 3
Mia-Paca-2 = assay: Cancer cell panel, cell viability (resazurin): Pancreatic, Mia-Paca-2; conditions: Mia-Paca-2 (Pancreatic), 72 hours; labelled drug combined with Example 3
Procedure: as §1, §2

Panc-1 = assay: Cancer cell panel, cell viability (resazurin): Pancreatic, Panc-1; conditions: Panc-1 (Pancreatic), 72 hours; labelled drug combined with Example 3
BxPC3 = assay: Cancer cell panel, cell viability (resazurin): Pancreatic, BxPC3; conditions: 72 hours, labelled drug combined with Example 3
Procedure: as §1, §2

HT29 = assay: Cancer cell panel, cell viability (resazurin): Colon, HT29; conditions: 72 hours, labelled drug combined with Example 3
Procedure: as §1, §2

Colo205 = assay: Cancer cell panel, cell viability (resazurin): Colon, Colo205; conditions: 72 hours, labelled drug combined with Example 3
LoVo = assay: Cancer cell panel, cell viability (resazurin): Colon, LoVo; conditions: 72 hours, labelled drug combined with Example 3
DLD-1 = assay: Cancer cell panel, cell viability (resazurin): Colon, DLD-1; conditions: DLD-1 (Colon), 72 hours; labelled drug combined with Example 3
H1299 = assay: Cancer cell panel, cell viability (resazurin): NSCLC, H1299; conditions: 72 hours, labelled drug combined with Example 3
A549 = assay: Cancer cell panel, cell viability (resazurin): NSCLC, A549; conditions: 72 hours, labelled drug combined with Example 3
H460 = assay: Cancer cell panel, cell viability (resazurin): NSCLC, H460; conditions: 72 hours, labelled drug combined with Example 3
H1975 = assay: Cancer cell panel, cell viability (resazurin): NSCLC, H1975; conditions: 72 hours, labelled drug combined with Example 3
Procedure: as §1, §2

H23 = assay: Cancer cell panel, cell viability (resazurin): NSCLC, H23; conditions: 72 hours, labelled drug combined with Example 3
H2122 = assay: Cancer cell panel, cell viability (resazurin): NSCLC, H2122; conditions: 72 hours, labelled drug combined with Example 3
SkBr-3 = assay: Cancer cell panel, cell viability (resazurin): Breast, SkBr-3; conditions: SkBr-3 (Breast), 72 hours; labelled drug combined with Example 3
MDA-MB-231 = assay: Cancer cell panel, cell viability (resazurin): Breast, MDA-MB-231; conditions: MDA-MB-231 (Breast), 72 hours; labelled drug combined with Example 3
MDA-MB-157 = assay: Cancer cell panel, cell viability (resazurin): Breast, MDA-MB-157; conditions: MDA-MB-157 (Breast), 72 hours; labelled drug combined with Example 3
BT-20 = assay: Cancer cell panel, cell viability (resazurin): Breast, BT-20; conditions: BT-20 (Breast), 72 hours; labelled drug combined with Example 3
Procedure: as §1, §2

ZR-75-1 = assay: Cancer cell panel, cell viability (resazurin): Breast, ZR-75-1; conditions: ZR-75-1 (Breast), 72 hours; labelled drug combined with Example 3
T47D = assay: Cancer cell panel, cell viability (resazurin): Breast, T47D; conditions: 72 hours, labelled drug combined with Example 3
MCF7 = assay: Cancer cell panel, cell viability (resazurin): Breast, MCF7; conditions: 72 hours, labelled drug combined with Example 3
Procedure: as §1, §2

ACHN = assay: Cancer cell panel, cell viability (resazurin): Renal, ACHN; conditions: 72 hours, labelled drug combined with Example 3
Caki-1 = assay: Cancer cell panel, cell viability (resazurin): Renal, Caki-1; conditions: Caki-1 (Renal), 72 hours; labelled drug combined with Example 3
Procedure: as §1, §2

A375 = assay: Cancer cell panel, cell viability (resazurin): Melanoma, A375; conditions: 72 hours, labelled drug combined with Example 3
SK-MEL-3 = assay: Cancer cell panel, cell viability (resazurin): Melanoma, SK-MEL-3; conditions: SK-MEL-3 (Melanoma), 72 hours; labelled drug combined with Example 3
Procedure: as §1, §2

SK-MEL-24 = assay: Cancer cell panel, cell viability (resazurin): Melanoma, SK-MEL-24; conditions: SK-MEL-24 (Melanoma), 72 hours; labelled drug combined with Example 3
Procedure: as §1, §2

WM-115 = assay: Cancer cell panel, cell viability (resazurin): Melanoma, WM-115; conditions: WM-115 (Melanoma), 72 hours; labelled drug combined with Example 3
Procedure: as §1, §2

U266 = assay: Cancer cell panel, cell viability (resazurin): multiple myeloma, U266; conditions: 72 hours, labelled drug combined with Example 3
RPMI8226 = assay: Cancer cell panel, cell viability (resazurin): multiple myeloma, RPMI8226; conditions: 72 hours, labelled drug combined with Example 3
Ramos = assay: Cancer cell panel, cell viability (resazurin): Burkitt's Lymphoma, Ramos; conditions: 72 hours, labelled drug combined with Example 3
Raji = assay: Cancer cell panel, cell viability (resazurin): Burkitt's Lymphoma, Raji; conditions: 72 hours, labelled drug combined with Example 3
K562 = assay: Cancer cell panel, cell viability (resazurin): Leukemia, K562; conditions: 72 hours, labelled drug combined with Example 3
HL60 = assay: Cancer cell panel, cell viability (resazurin): Leukemia, HL60; conditions: 72 hours, labelled drug combined with Example 3
EOL-1 = assay: Cancer cell panel, cell viability (resazurin): Leukemia, EOL-1; conditions: EOL-1 (Leukemia), 72 hours; labelled drug combined with Example 3
MOLT4 = assay: Cancer cell panel, cell viability (resazurin): Leukemia, MOLT4; conditions: 72 hours, labelled drug combined with Example 3

CCN(CC)CCNC(=O)c1c(C)[nH]c(/C=C2\C(=O)Nc3ccc(F)cc32)c1C [Sunitinib, sunitinib]
synergy, additivity or antagonism of the combination of Example 3 with the anti-cancer drug (SKOV-3): + (Additive relative to each agent alone (CI = 0.9-1 by Bliss Independence Model and <0.9 by Highest Single Agent Model))
synergy, additivity or antagonism of the combination of Example 3 with the anti-cancer drug (OVCAR-3): − − (Antagonistic relative to each agent alone (CI = 1.2-1.49 by Highest Single Agent Model))
synergy, additivity or antagonism of the combination of Example 3 with the anti-cancer drug (A2780): + + + (Synergy relative to each agent alone (CI = 0.4-0.74 by Bliss Independence Model))
synergy, additivity or antagonism of the combination of Example 3 with the anti-cancer drug (Caov-3): + (Additive relative to each agent alone (CI = 0.9-1 by Bliss Independence Model and <0.9 by Highest Single Agent Model))
synergy, additivity or antagonism of the combination of Example 3 with the anti-cancer drug (Mia-Paca-2): + + (Slight synergy relative to each agent alone (CI = 0.75-0.9 by Bliss Independence Model))
synergy, additivity or antagonism of the combination of Example 3 with the anti-cancer drug (Panc-1): + + (Slight synergy relative to each agent alone (CI = 0.75-0.9 by Bliss Independence Model))
synergy, additivity or antagonism of the combination of Example 3 with the anti-cancer drug (BxPC3): + + + (Synergy relative to each agent alone (CI = 0.4-0.74 by Bliss Independence Model))
synergy, additivity or antagonism of the combination of Example 3 with the anti-cancer drug (HT29): + (Additive relative to each agent alone (CI = 0.9-1 by Bliss Independence Model and <0.9 by Highest Single Agent Model))
synergy, additivity or antagonism of the combination of Example 3 with the anti-cancer drug (Colo205): + + + + (Strong synergy relative to each agent alone (CI < 0.4 by Bliss Independence Model))
synergy, additivity or antagonism of the combination of Example 3 with the anti-cancer drug (LoVo): + (Additive relative to each agent alone (CI = 0.9-1 by Bliss Independence Model and <0.9 by Highest Single Agent Model))
synergy, additivity or antagonism of the combination of Example 3 with the anti-cancer drug (DLD-1): + + (Slight synergy relative to each agent alone (CI = 0.75-0.9 by Bliss Independence Model))
synergy, additivity or antagonism of the combination of Example 3 with the anti-cancer drug (H1299): + (Additive relative to each agent alone (CI = 0.9-1 by Bliss Independence Model and <0.9 by Highest Single Agent Model))
synergy, additivity or antagonism of the combination of Example 3 with the anti-cancer drug (A549): + + + (Synergy relative to each agent alone (CI = 0.4-0.74 by Bliss Independence Model))
synergy, additivity or antagonism of the combination of Example 3 with the anti-cancer drug (H460): + + (Slight synergy relative to each agent alone (CI = 0.75-0.9 by Bliss Independence Model))
synergy, additivity or antagonism of the combination of Example 3 with the anti-cancer drug (H1975): + + (Slight synergy relative to each agent alone (CI = 0.75-0.9 by Bliss Independence Model))
synergy, additivity or antagonism of the combination of Example 3 with the anti-cancer drug (H23): + + + (Synergy relative to each agent alone (CI = 0.4-0.74 by Bliss Independence Model))
synergy, additivity or antagonism of the combination of Example 3 with the anti-cancer drug (H2122): + + (Slight synergy relative to each agent alone (CI = 0.75-0.9 by Bliss Independence Model))
synergy, additivity or antagonism of the combination of Example 3 with the anti-cancer drug (SkBr-3): + + (Slight synergy relative to each agent alone (CI = 0.75-0.9 by Bliss Independence Model))
synergy, additivity or antagonism of the combination of Example 3 with the anti-cancer drug (MDA-MB-231): + + (Slight synergy relative to each agent alone (CI = 0.75-0.9 by Bliss Independence Model))
synergy, additivity or antagonism of the combination of Example 3 with the anti-cancer drug (MDA-MB-157): + + + (Synergy relative to each agent alone (CI = 0.4-0.74 by Bliss Independence Model))
synergy, additivity or antagonism of the combination of Example 3 with the anti-cancer drug (BT-20): + + (Slight synergy relative to each agent alone (CI = 0.75-0.9 by Bliss Independence Model))
synergy, additivity or antagonism of the combination of Example 3 with the anti-cancer drug (ZR-75-1): + + (Slight synergy relative to each agent alone (CI = 0.75-0.9 by Bliss Independence Model))
synergy, additivity or antagonism of the combination of Example 3 with the anti-cancer drug (T47D): + (Additive relative to each agent alone (CI = 0.9-1 by Bliss Independence Model and <0.9 by Highest Single Agent Model))
synergy, additivity or antagonism of the combination of Example 3 with the anti-cancer drug (MCF7): + (Additive relative to each agent alone (CI = 0.9-1 by Bliss Independence Model and <0.9 by Highest Single Agent Model))
synergy, additivity or antagonism of the combination of Example 3 with the anti-cancer drug (ACHN): + (Additive relative to each agent alone (CI = 0.9-1 by Bliss Independence Model and <0.9 by Highest Single Agent Model))
synergy, additivity or antagonism of the combination of Example 3 with the anti-cancer drug (Caki-1): + (Additive relative to each agent alone (CI = 0.9-1 by Bliss Independence Model and <0.9 by Highest Single Agent Model))
synergy, additivity or antagonism of the combination of Example 3 with the anti-cancer drug (A375): + + (Slight synergy relative to each agent alone (CI = 0.75-0.9 by Bliss Independence Model))
synergy, additivity or antagonism of the combination of Example 3 with the anti-cancer drug (SK-MEL-3): + (Additive relative to each agent alone (CI = 0.9-1 by Bliss Independence Model and <0.9 by Highest Single Agent Model))
synergy, additivity or antagonism of the combination of Example 3 with the anti-cancer drug (SK-MEL-24): + + + (Synergy relative to each agent alone (CI = 0.4-0.74 by Bliss Independence Model))
synergy, additivity or antagonism of the combination of Example 3 with the anti-cancer drug (WM-115): + + (Slight synergy relative to each agent alone (CI = 0.75-0.9 by Bliss Independence Model))
synergy, additivity or antagonism of the combination of Example 3 with the anti-cancer drug (U266): + (Additive relative to each agent alone (CI = 0.9-1 by Bliss Independence Model and <0.9 by Highest Single Agent Model))
synergy, additivity or antagonism of the combination of Example 3 with the anti-cancer drug (RPMI8226): + + + + (Strong synergy relative to each agent alone (CI < 0.4 by Bliss Independence Model))
synergy, additivity or antagonism of the combination of Example 3 with the anti-cancer drug (Ramos): + + (Slight synergy relative to each agent alone (CI = 0.75-0.9 by Bliss Independence Model))
synergy, additivity or antagonism of the combination of Example 3 with the anti-cancer drug (Raji): + + (Slight synergy relative to each agent alone (CI = 0.75-0.9 by Bliss Independence Model))
synergy, additivity or antagonism of the combination of Example 3 with the anti-cancer drug (K562): + + + (Synergy relative to each agent alone (CI = 0.4-0.74 by Bliss Independence Model))
synergy, additivity or antagonism of the combination of Example 3 with the anti-cancer drug (HL60): + + (Slight synergy relative to each agent alone (CI = 0.75-0.9 by Bliss Independence Model))
synergy, additivity or antagonism of the combination of Example 3 with the anti-cancer drug (EOL-1): + + (Slight synergy relative to each agent alone (CI = 0.75-0.9 by Bliss Independence Model))
synergy, additivity or antagonism of the combination of Example 3 with the anti-cancer drug (MOLT4): + (Additive relative to each agent alone (CI = 0.9-1 by Bliss Independence Model and <0.9 by Highest Single Agent Model))
